Measured values published in patent US9145354B2, “Pharmaceutical compounds” (priority 2011, dated 2015).
Structures can show the parent of a compound that is named as a salt. Where two headings read alike, the source gives them in different places.

Molecular target: full length NS3/4a (Hepatitis C virus genotype 1b (isolate BK) (HCV), UniProt P26663)
Assay: NS3 Protease Assay (Example A), FRET-based
Type: biochemical
Outline: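 Initial rates were taken from fluorescence progress curves over 30 min at room temperature, and IC50 was fitted across replicates. In-house full-length NS3/4a cleaved a FRET peptide (5-FAMsp/QXL520) from the NS4A/B site. Medium: 50 mM Tris pH8, 20 mM DTT, 1% CHAPS, 10% glycerol, 5% DMSO.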

[1] = HCV NS3 protease assay, full length NS3/4a, read-out: Assay A IC50 (μM) average
[2] = read-out: IC50 against the protease activity of the full length NS3/4a
[3] = stated as IC50 less than 30 μM or at least 40% inhibition at a concentration of 100 μM, read-out: IC50 against the protease activity of the full length NS3/4a

full length NS3/4a, sequence (P26663 1027-1657): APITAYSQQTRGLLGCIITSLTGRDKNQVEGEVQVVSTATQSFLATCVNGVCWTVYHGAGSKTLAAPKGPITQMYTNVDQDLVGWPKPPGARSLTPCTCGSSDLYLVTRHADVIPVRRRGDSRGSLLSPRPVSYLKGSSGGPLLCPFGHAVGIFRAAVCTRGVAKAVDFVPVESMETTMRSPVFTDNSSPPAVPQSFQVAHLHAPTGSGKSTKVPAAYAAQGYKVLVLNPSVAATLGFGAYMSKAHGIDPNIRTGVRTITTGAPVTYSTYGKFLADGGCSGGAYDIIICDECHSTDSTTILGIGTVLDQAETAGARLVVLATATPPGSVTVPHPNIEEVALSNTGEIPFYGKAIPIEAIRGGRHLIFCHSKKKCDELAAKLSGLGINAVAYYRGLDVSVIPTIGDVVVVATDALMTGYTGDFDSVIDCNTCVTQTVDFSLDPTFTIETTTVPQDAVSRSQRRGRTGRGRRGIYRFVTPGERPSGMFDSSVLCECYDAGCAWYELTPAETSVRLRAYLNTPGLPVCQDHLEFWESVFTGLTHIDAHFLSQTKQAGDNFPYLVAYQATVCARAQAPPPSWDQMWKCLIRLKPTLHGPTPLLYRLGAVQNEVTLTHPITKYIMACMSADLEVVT

| SMILES | IC50 [1] [µM] | IC50 [2] [µM] | further results |
| --- | --- | --- | --- |
| CC[C@@H](N[C@@H](C)CC(N)=O)c1ccc(Cl)c(C(=O)c2ccc(N(C)C)nc2)c1F [Example 136, (3S)-3-{[(1R)-1-(4-chloro-3-{[6-(dimethylamino)pyridin-3-yl]carbonyl}-2-fluorophenyl)propyl]-amino}butanamide] | 0.83 | < 1 |  |
| CC[C@@H](N[C@H](C)CC(N)=O)c1ccc(Cl)c(C(=O)c2ccc(N(C)C)nc2)c1F [Example 137, (3R)-3-{[(1R)-1-(4-chloro-3-{[6-(dimethylamino)pyridin-3-yl]carbonyl}-2-fluorophenyl)propyl]amino}butanamide] |  |  | inhibition at 30 µM (@ 30 uM): 60%; IC50 [3]: < 30 µM |
| CC[C@@H](N[C@@H](C)CC(N)=O)c1ccc(Cl)c(C(=O)c2cnc(N)cn2)c1F [Example 138, (3S)-3-{[(1R)-1-{3-[(5-aminopyrazin-2-yl)carbonyl]-4-chloro-2-fluorophenyl}propyl]-amino}butanamide] | 0.31 | < 1 |  |
| CC[C@@H](N[C@H](C)CC(N)=O)c1ccc(Cl)c(C(=O)c2ccc(-n3cccn3)nc2)c1F [Example 140, (3R)-3-{[(1R)-1-(4-chloro-2-fluoro-3-{[6-(1H-pyrazol-1-yl)pyridin-3-yl]carbonyl}-phenyl)-propyl]amino}-butanamide] | 3.9 | 1 to 5 |  |
| CC[C@@H](N[C@H](C)CC(N)=O)c1ccc(Cl)c(C(=O)c2ccc(C#N)nc2)c1F [Example 141, (3R)-3-{[(1R)-1-{4-chloro-3-[(6-cyanopyridin-3-yl)carbonyl]-2-fluorophenyl}propyl]-amino}butanamide] | 0.47 | < 1 |  |
| CC[C@@H](N[C@H](C)CC(N)=O)c1ccc(Cl)c(C(=O)c2cc[n+]([O-])cc2)c1F [Example 143, (R)-3-{(R)-1-[4-Chloro-2-fluoro-3-(1-oxy-pyridine-4-carbonyl)-phenyl]propylamino}-butyramide] |  |  | Assay A % inhibition average: 59% @ 30 uM; IC50 [3]: < 30 µM |
| CC[C@@H](N[C@@H](C)CC(N)=O)c1ccc(Cl)c(C(=O)c2ccc(C(N)=O)cc2)c1F [Example 146, 4-({3-[(1R)-1-{[(2S)-1-Carbamoylpropan-2-yl]amino}propyl]-6-chloro-2-fluorophenyl}carbonyl)-benzamide] |  |  | inhibition at 0.3 µM (@ 0.3 uM): 56% |
| CC[C@@H](N[C@H](C)CC(N)=O)c1ccc(Cl)c(C(=O)c2ccc(=O)[nH]c2)c1F [Example 148, (3R)-3-{[(1R)-1-{4-chloro-2-fluoro-3-[(6-oxo-1,6-dihydropyridin-3-yl)carbonyl]-phenyl}propyl]amino}-butanamide] |  |  | inhibition at 10 µM: 43%; IC50 [3]: < 30 µM |
| CC[C@@H](N[C@H](C)CC(N)=O)c1ccc(C)c(C(=O)c2ccccc2)c1F [Example 151, (3R)-3-{[(1R)-1-(3-benzoyl-2-fluoro-4-methylphenyl)propyl]amino}butanamide] | 0.49 |  |  |
| CC[C@@H](N[C@H](C)CC(N)=O)c1ccc(OC)c(C(=O)c2ccccc2)c1F [Example 153, (3R)-3-{[(1R)-1-(3-benzoyl-2-fluoro-4-methoxyphenyl)propyl]amino}butanamide] | 0.49 |  |  |
| C[C@H](CC(N)=O)N[C@@H](c1ccc(Cl)c(C(=O)c2ccc(N)nc2)c1F)C1CC1 [Example 155, (3R)-3-{[(R)-{3-[(6-aminopyridin-3-yl)carbonyl]-4-chloro-2-fluorophenyl}(cyclo-propyl)methyl]amino}-butanamide] | 1 | 1 to 5 |  |
| CC[C@@H](N[C@H](C)CC(N)=O)c1ccc(Cl)c(C(=O)c2ccc(N)cn2)c1F [Example 156, (3R)-3-{[(1R)-1-{3-[(5-aminopyridin-2-yl)carbonyl]-4-chloro-2-fluorophenyl}propyl]-amino}butanamide] | 2 | 1 to 5 |  |
| CC[C@@H](N[C@H](C)CC(N)=O)c1ccc(F)c(C(=O)c2ccccc2)c1F [Example 158, (3R)-3-{[(1R)-1-(3-benzoyl-2,4-difluorophenyl)propyl]-amino}butanamide] | 0.35 |  |  |
| CC[C@@H](N[C@H](C)CC(N)=O)c1ccc(Cl)c(C(=O)c2ccc(-n3cc(CO)cn3)nc2)c1F [Example 160, (3R)-3-{[(1R)-1-[4-chloro-2-fluoro-3-({6-[4-(hydroxymethyl)-1H-pyrazol-1-yl]pyridin-3-yl}carbonyl)phenyl]-propyl]amino}-butanamide] | 4.2 | 1 to 5 |  |
| CC[C@@H](NCCO)c1ccc(Cl)c(C(=O)c2cccnc2)c1F [Example 163, 2-{[(1R)-1-{4-Chloro-2-fluoro-3-[(pyridin-3-yl)carbonyl]phenyl}propyl]amino}ethan-1-ol] |  |  | inhibition at 10 µM: 62%; IC50 [3]: < 30 µM |
| CC[C@@H](NCC(N)=O)c1ccc(Cl)c(C(=O)c2cccnc2)c1F [Example 164, 2-{[(1R)-1-{4-Chloro-2-fluoro-3-[(pyridin-3-yl)carbonyl]phenyl}propyl]amino}-acetamide] |  |  | inhibition at 10 µM: 37% |
| CC[C@@H](N[C@@H](C)CO)c1ccc(Cl)c(C(=O)c2cccnc2)c1F [Example 165, (2S)-2-{[(1R)-1-{4-chloro-2-fluoro-3-[(pyridin-3-yl)carbonyl]phenyl}-propyl]amino}-propan-1-ol] | 1.4 | 1 to 5 |  |

| SMILES | IC50 [1] [µM] | IC50 [2] [µM] | further results |
| --- | --- | --- | --- |
| CC[C@@H](N[C@H](C)CO)c1ccc(Cl)c(C(=O)c2cccnc2)c1F [Example 166, (2R)-2-{[(1R)-1-{4-chloro-2-fluoro-3-[(pyridin-3-yl)carbonyl}phenyI}-propyl]amino}propan-1-ol] | 6.3 |  | IC50 [3]: < 30 µM |
| CC[C@@H](N[C@H](C)C(N)=O)c1ccc(Cl)c(C(=O)c2cccnc2)c1F [Example 169, (2R)-2-{[(1R)-1-{4-chloro-2-fluoro-3-[(pyridin-3-yl)carbonyl]phenyI}-propyl]amino}propanamide] |  |  | Assay A % inhibition average (@ 100 uM): 53% @ 100 uM; IC50 [3]: < 30 µM |
| CC[C@@H](N[C@@H](C)C(N)=O)c1ccc(Cl)c(C(=O)c2cccnc2)c1F [Example 170, (2S)-2-{[(1R)-1-{4-chloro-2-fluoro-3-[(pyridin-3-yl)carbonyl]phenyl}-propyl]amino}-propanamide] |  | 1 to 5 | inhibition at 3 µM (@ 3 uM): 55% |
| CC[C@@H](NCC(C)(C)C(N)=O)c1ccc(Cl)c(C(=O)c2cccnc2)c1F [Example 172, 3-{(R)-1-[4-Chloro-2-fluoro-3-(pyridine-3-carbonyl)-phenyl]-propylamino}-2,2-dimethyl-propionamide] | 1.6 | 1 to 5 |  |
| CC[C@H](NCCO)c1ccc(Cl)c(C(=O)c2ccc(N)nc2)c1F [Example 173, 2-{[(1S)-1-{3-[(6-aminopyridin-3-yl)carbonyl]-4-chloro-2-fluorophenyl}propyl]-amino}ethan-1-ol] | 0.13 | < 1 |  |
| CC[C@@H](NC[C@@H](C)C(N)=O)c1ccc(Cl)c(C(=O)c2cccnc2)c1F.Cl [Example 174, 2R)-3-{[(1R)-1-{4-chloro-2-fluoro-3-[(pyridin-3-yl)carbonyl]phenyl}-propyl]amino}-2-methylpropanamide HCl (1:1] |  |  | Assay A % inhibition average: 47% @ 30 uM; IC50 [3]: < 30 µM |
| CC[C@@H](NCCCO)c1ccc(Cl)c(C(=O)c2ccccc2)c1F [Example 181, 3-{[(1R)-1-(3-benzoyl-4-chloro-2-fluorophenyl)propyl]-amino}propan-1-ol] | 0.26 |  |  |
| CC[C@H](NCCCO)c1ccc(Cl)c(C(=O)c2ccccc2)c1F [Example 182, 3-{[(1S)-1-(3-benzoyl-4-chloro-2-fluorophenyl)propyl]-amino}propan-1-ol] | 0.038 |  |  |
| CCC(NC1(C(N)=O)CC1)c1ccc(Cl)c(C(=O)c2ccccc2)c1F (centres unmarked) [Example 184, 1-[1-(3-Benzoyl-4-chloro-2-fluorophenyl)-propylamino]-cyclopropanecarboxylic acid amide.HCl] |  |  | inhibition at 10 µM: 22% |
| NC(=O)CCN[C@@H](c1ccc(Cl)c(C(=O)c2cnc(N)cn2)c1F)C1CC1 [Example 185, 3-{[(R)-{3-[(5-aminopyrazin-2-yl)carbonyl]-4-chloro-2-fluorophenyl}(cyclo-propyl)methyl]amino}-propanamide] | 0.6 |  |  |
| CC[C@@H](N[C@@H](C)CC(N)=O)c1ccc(Cl)c(C(=O)c2ccc(CO)cc2)c1F [Example 186, (3S)-3-{[(1R)-1-(4-chloro-2-fluoro-3-{[4-(hydroxymethyl)-phenyl]carbonyl}phenyl)propyl]amino}-butanamide] | 0.11 |  |  |
| CC[C@@H](N[C@H](C)CC(N)=O)c1ccc(Cl)c(C(=O)c2ccc(CO)cc2)c1F [Example 187, (3R)-3-{[(1R)-1-(4-chloro-2-fluoro-3-{[4-(hydroxymethyl)-phenyl]-carbonyl}phenyl)-propyl]amino}butanamide] | 0.66 |  |  |
| CC[C@@H](N[C@@H](C)CC(N)=O)c1ccc(Cl)c(C(=O)c2cccc(CO)c2)c1F [Example 188, (3S)-3-{[(1R)-1-(4-chloro-2-fluoro-3-{[3-(hydroxymethyl)-phenyl]carbonyl}phenyl)-propyl]amino}butanamide] | 0.14 |  |  |
| CC[C@@H](N[C@H](C)CC(N)=O)c1ccc(Cl)c(C(=O)c2cccc(CO)c2)c1F [Example 189, (3R)-3-{[(1R)-1-(4-chloro-2-fluoro-3-{[3-(hydroxymethyl)-phenyl]-carbonyl}phenyl)-propyl]amino}butanamide] | 0.54 |  |  |
| C[C@H](CC(N)=O)N[C@@H](c1ccc(Cl)c(C(=O)c2ccc(N)c(C#N)c2)c1F)C1CC1 [Example 190, (3R)-3-{[(R)-{3-[(4-amino-3-cyanophenyl)carbonyl]-4-chloro-2-fluorophenyl}(cyclopropyl)methyl]amino}butanamide] | 0.37 |  | IC50 [3]: < 30 µM |
| CC[C@@H](N)c1ccc(OC)c(C(=O)c2ccc(F)cc2)c1F [Example 191, (1R)-1-{2-fluoro-3-[(4-fluorophenyl)carbonyl]-4-methoxyphenyl}-propan-1-amine] | 1.1 | 1 to 5 |  |
